# Measurements reported in patent US10746637B2, “Aldehyde scavenging agent for retrieving elements from fixed tissue” (University of Houston System, priority 2013, dated 2020).
# “Also recorded” adds a separate entry of the source.
# Experiments:
# [1] = tested on: blood vessels; assay: Antigen retrieval in paraformaldehyde fixed vascular tissue, visualization of blood vessels; conditions: paraformaldehyde fixed tissue heated in solution of compound (FIGS. 4A-4E)
# Text: Paraformaldehyde fixed tissue samples are heated in solutions of compounds prepared as described in Example 1 and the blood vessels in the tissue are visualized.
# [2] = tested on: Angiotensin I; assay: Mass spectrometry of formalin treated Angiotensin I after heating with aldehyde scavenging compounds; conditions: 5% compound, 95° C., 45 minutes
# Description: Angiotensin I is treated with formalin at room temperature for 48 hours. […] Mass-spectrometry is used to analyze the compositions of the Angiotensin I before and after treatment by each compound. Samples of Angiotensin I before (FIG. 11A) and after (FIG. 11B) formalin treatments are used as the controls for the experiment. Peaks at m/z 1296 represent unmodified Angiotensin I. Peaks at m/z 1308 represent Angiotensin I with 1 methylene unit. Peaks at m/z 1320 represent Angiotensin I with 2 methylene units. Peaks at m/z 1338 represent Angiotensin I with 1 methylene unit and 1 hydroxymethylene group. Peaks at m/z 1350 represent Angiotensin I with 2 methylene units and 1 hydroxymethylene group.
# [3] = tested on: Collagen IV; assay: Immunohistochemical staining of Collagen IV on formalin fixed paraffin embedded mouse brain sections after antigen retrieval with formaldehyde scavengers and enhancer; parameters: key: − being non-reactive; Immunoreactivity was scored on a scale of − to +++; Immunoreactivity was scored on a scale of − to +++; +++ being highly reactive; conditions: Table 8; 0.05% maleic acid alone or with aniline, concentrations in label; 45 minutes at 95° C.
# Description: 12-month-old C57Bl6J mice were housed under controlled environment conditions on a condition al 12 hour light dark cycle. Following sacrifice, brains were post-fixed in 4% paraformaldehyde for 72 hours at […] and then transferred to 70% ethanol solution where they were stored at 4° C. Tissue was paraffin-processed using convention dehydration and embedding, and then sectioned at 5 μm intervals.
# Tissues were deparaffinized and rehydrated. Slides were placed in a plastic Coplin jar containing either distilled water or a combination of formaldehyde scavengers in combination with an enhancer. Jars were covered with a loose fitting screw cap and heated in a pressure cooker for 45 minutes at 95° C. After heating, the Coplin jars were removed and allowed to cool and rinsed in TBST for five minutes.
# Immunohistochemical staining was performed using a three-step immunostaining technique using the ABC method. Briefly, all incubations were performed as follows: 1) primary antibodies were incubated overnight at 4° C., 2) secondary antibodies were incubated for 10 minutes at room temperature, 3) streptavidin-conjugated enzyme was incubated for 10 minutes at room temperature, 4) peroxidase substrate was incubated for 1 minute.
# [4] = tested on: GAPDH; assay: Dot blot of GAPDH in formaldehyde treated tissues; conditions: maleic acid 1.6% to 12.8%, 95° C. for 30 minutes (FIG. 6B)
# [5] = tested on: ACTH (18-39) peptide; assay: Mass spectrometry of formalin treated ACTH (18-39) peptide after heating with formaldehyde scavenging agents; conditions: 5% compound, 98° C. for 45 minutes as printed with the result (method says 90° C.)
# Description: ACTH (18-39) peptide is treated with formalin at room temperature for 48 hours (FIG. 12A). […] The composition of the formalin treated ACTH after each treatment is analyzed using mass spectrometry. The results shown in FIGS. 12A-12D are used to investigate the ability of the agents to reverse formaldehyde adducts. […] Only a small amount of ACTH with 3 methylene units is detected.
# [6] = tested on: Collagen IV; assay: Antigen retrieval in adult human brain vasculature, Collagen IV staining; conditions: paraformaldehyde fixed paraffin embedded adult human brain tissue (FIG. 7)
# Description: Paraformaldehyde fixed paraffin embedded tissue from adult human brain is treated with 2,3-dimethylmaleic acid as an antigen retrieval method as described.
# [7] = Autofluorescence of heated paraformaldehyde fixed paraffin embedded brain tissue; conditions: 5% ascorbic acid; 70° C., 30 minutes; 488 nm excitation; versus tissue heated only in water
# Text: Images are captured at same exposure and time.
# [8] = tested on: collagen IV; assay: Fluorescent enhancement after antigen retrieval with addition of Triton, Collagen IV detection of blood vessels; conditions: 0.5% Triton X-100 added to 5.0% ascorbic acid solution; 70° C., 30 minutes; 488 nm excitation; versus without Triton X-100
# Text: Images are captured using 488 nm excitation.
compound,measurement,setting,value
"O=C(O)/C=C\C(=O)O [0.05% Maleic acid, Maleic acid]",antigen retrieval with visualization of the blood vessels,[1],successful antigen retrieval
same,amount of Angiotensin I with 2 methylene units (m/z 1320),[2],significantly reduce
same,content of unmodified Angiotensin I (m/z 1296),[2],higher content of unmodified Angiotensin I
same,"Result (immunoreactivity, Collagen IV staining)",[3],+
same,detection of GAPDH (dot blot),[4],parallel increase in the detection of GAPDH
same,"conversion of modified ACTH (1, 2 or 3 methylene groups) into unmodified ACTH (m/z 2465)",[5],convert almost all the modified ACTH
"C/C(C(=O)O)=C(\C)C(=O)O [2,3-dimethylmaleic acid]",detection of blood vessels using Collagen IV,[6],Blood vessels were detected
O=C1O[C@H]([C@@H](O)CO)C(O)=C1O [ascorbic acid],tissue autofluorescence,[7],dramatically reduces visible autofluorescence; also recorded: reduction of autofluorescence
same,retrieval of formalin adducts of Angiotensin I,[2],significant retrieval of formalin adducts
same,"conversion of modified ACTH (1, 2 or 3 methylene groups) into unmodified ACTH (m/z 2465)",[5],convert almost all the modified ACTH
Triton X-100,staining evenness and fluorescence intensity after antigen retrieval,[8],significant improvement in staining evenness and intensity; also recorded: enhancement of fluorescence
